Experimental data reported in ChEMBL document CHEMBL3867433, “Synthesis and antimicrobial activity of styryl/pyrrolyl/pyrazolyl sulfonylmethyl-1,3,4-oxadiazolyl amines and styryl/pyrrolyl/pyrazolyl sulfonylmethyl-1,3,4-thiadiazolyl amines” (2016).
≈ marks a conversion by molar mass, not a printed value.

What was measured:
Type in all cases: functional
[1] = Antifungal activity against Penicillium chrysogenum assessed as inhibition of spore germination at 100 ug/well after 48 hrs by agar well diffusion method
[2] = Antifungal activity against Penicillium chrysogenum assessed as inhibition of spore germination after 48 hrs by broth dilution method
[3] = Antifungal activity against Penicillium chrysogenum assessed as inhibition of spore germination at 25 ug/well after 48 hrs by agar well diffusion method
[4] = system: Aspergillus niger; assay: Antifungal activity against Aspergillus niger assessed as inhibition of spore germination at 50 ug/well after 48 hrs by agar well diffusion method; conditions: read-out: DIZ
[5] = Antifungal activity against Penicillium chrysogenum assessed as inhibition of spore germination at 50 ug/well after 48 hrs by agar well diffusion method
[6] = system: Aspergillus niger; assay: Antifungal activity against Aspergillus niger assessed as inhibition of spore germination at 100 ug/well after 48 hrs by agar well diffusion method; conditions: read-out: DIZ
[7] = Antifungal activity against Penicillium chrysogenum assessed as inhibition of spore germination at 12.5 ug/well after 48 hrs by agar well diffusion method
[8] = system: Aspergillus niger; assay: Antifungal activity against Aspergillus niger assessed as inhibition of spore germination after 48 hrs by broth dilution method
[9] = system: Aspergillus niger; assay: Antifungal activity against Aspergillus niger assessed as inhibition of spore germination at 25 ug/well after 48 hrs by agar well diffusion method; conditions: read-out: DIZ
[10] = system: Aspergillus niger; assay: Antifungal activity against Aspergillus niger assessed as inhibition of spore germination at 12.5 ug/well after 48 hrs by agar well diffusion method; conditions: read-out: DIZ
[11] = system: Bacillus subtilis; assay: Antibacterial activity against Bacillus subtilis at 50 ug/well after 24 hrs by agar well diffusion method; conditions: read-out: DIZ
[12] = system: Penicillium chrysogenum; assay: Fungicidal activity against Penicillium chrysogenum assessed as inhibition of spore germination after 48 hrs
[13] = system: Klebsiella pneumoniae; assay: Antibacterial activity against Klebsiella pneumoniae at 100 ug/well after 24 hrs by agar well diffusion method; conditions: read-out: DIZ
[14] = system: Bacillus subtilis; assay: Antibacterial activity against Bacillus subtilis after 24 hrs by broth dilution method
[15] = system: Pseudomonas aeruginosa; assay: Antibacterial activity against Pseudomonas aeruginosa at 25 ug/well after 24 hrs by agar well diffusion method; conditions: read-out: DIZ
[16] = system: Pseudomonas aeruginosa; assay: Ratio of MBC to MIC for Pseudomonas aeruginosa
[17] = system: Bacillus subtilis; assay: Antibacterial activity against Bacillus subtilis at 100 ug/well after 24 hrs by agar well diffusion method; conditions: read-out: DIZ
[18] = system: Klebsiella pneumoniae; assay: Antibacterial activity against Klebsiella pneumoniae at 12.5 ug/well after 24 hrs by agar well diffusion method; conditions: read-out: DIZ
[19] = system: Staphylococcus aureus; assay: Antibacterial activity against Staphylococcus aureus at 100 ug/well after 24 hrs by agar well diffusion method; conditions: read-out: DIZ
[20] = system: Klebsiella pneumoniae; assay: Antibacterial activity against Klebsiella pneumoniae at 50 ug/well after 24 hrs by agar well diffusion method; conditions: read-out: DIZ
[21] = system: Klebsiella pneumoniae; assay: Antibacterial activity against Klebsiella pneumoniae after 24 hrs by broth dilution method
[22] = system: Pseudomonas aeruginosa; assay: Antibacterial activity against Pseudomonas aeruginosa at 12.5 ug/well after 24 hrs by agar well diffusion method; conditions: read-out: DIZ
[23] = system: Staphylococcus aureus; assay: Bactericidal activity against Staphylococcus aureus after 24 hrs
[24] = system: Bacillus subtilis; assay: Antibacterial activity against Bacillus subtilis at 25 ug/well after 24 hrs by agar well diffusion method; conditions: read-out: DIZ
[25] = system: Klebsiella pneumoniae; assay: Bactericidal activity against Klebsiella pneumoniae after 24 hrs
[26] = system: Penicillium chrysogenum; assay: Ratio of MFC to MIC for Penicillium chrysogenum
[27] = system: Aspergillus niger; assay: Fungicidal activity against Aspergillus niger assessed as inhibition of spore germination after 48 hrs
[28] = system: Pseudomonas aeruginosa; assay: Bactericidal activity against Pseudomonas aeruginosa after 24 hrs
[29] = system: Pseudomonas aeruginosa; assay: Antibacterial activity against Pseudomonas aeruginosa after 24 hrs by broth dilution method
[30] = system: Klebsiella pneumoniae; assay: Antibacterial activity against Klebsiella pneumoniae at 25 ug/well after 24 hrs by agar well diffusion method; conditions: read-out: DIZ
[31] = system: Staphylococcus aureus; assay: Antibacterial activity against Staphylococcus aureus at 25 ug/well after 24 hrs by agar well diffusion method; conditions: read-out: DIZ
[32] = system: Staphylococcus aureus; assay: Antibacterial activity against Staphylococcus aureus after 24 hrs by broth dilution method
[33] = system: Bacillus subtilis; assay: Antibacterial activity against Bacillus subtilis at 12.5 ug/well after 24 hrs by agar well diffusion method; conditions: read-out: DIZ
[34] = system: Pseudomonas aeruginosa; assay: Antibacterial activity against Pseudomonas aeruginosa at 50 ug/well after 24 hrs by agar well diffusion method; conditions: read-out: DIZ
[35] = system: Bacillus subtilis; assay: Bactericidal activity against Bacillus subtilis after 24 hrs
[36] = system: Staphylococcus aureus; assay: Antibacterial activity against Staphylococcus aureus at 12.5 ug/well after 24 hrs by agar well diffusion method; conditions: read-out: DIZ
[37] = system: Staphylococcus aureus; assay: Antibacterial activity against Staphylococcus aureus at 50 ug/well after 24 hrs by agar well diffusion method; conditions: read-out: DIZ
[38] = system: Pseudomonas aeruginosa; assay: Antibacterial activity against Pseudomonas aeruginosa at 100 ug/well after 24 hrs by agar well diffusion method; conditions: read-out: DIZ

CC(=O)N1CCN(c2ccc(OCC3COC(Cn4ccnc4)(c4ccc(Cl)cc4Cl)O3)cc2)CC1 (stereo not drawn) [KETOCONAZOLE]
inhibition zone (IZ) [1]: 39 mm
MIC [2]: 12.5 µg/mL (≈ 23.5 µM)
inhibition zone (IZ) [3]: 36 mm
zone of inhibition at 50 µg/disc [4]: 34 mm
inhibition zone (IZ) [5]: 37 mm
zone of inhibition at 100 µg/disc [6]: 37 mm
inhibition zone (IZ) [7]: 34 mm
MIC [8]: 6.25 µg/mL (≈ 11.8 µM)
zone of inhibition at 25 µg/disc [9]: 31 mm
zone of inhibition at 12.5 µg/disc [10]: 29 mm

Nc1nnc(CS(=O)(=O)c2n[nH]cc2-c2ccc(Cl)cc2)s1
zone of inhibition at 50 µg/disc [11]: 28 mm
inhibition zone (IZ) [1]: 38 mm
MFC [12]: 50 µg/mL (≈ 141 µM)
MIC [2]: 12.5 µg/mL (≈ 35.1 µM)
zone of inhibition at 100 µg/disc [13]: 36 mm
inhibition zone (IZ) [3]: 33 mm
MIC [14]: 25 µg/mL (≈ 70.3 µM)
zone of inhibition at 25 µg/disc [15]: 26 mm
Ratio [16]: >2
zone of inhibition at 100 µg/disc [17]: 30 mm
zone of inhibition at 12.5 µg/disc [18]: 30 mm
zone of inhibition at 100 µg/disc [19]: 25 mm
zone of inhibition at 50 µg/disc [20]: 34 mm
MIC [21]: 25 µg/mL (≈ 70.3 µM)
zone of inhibition at 50 µg/disc [4]: 28 mm
inhibition zone (IZ) [5]: 35 mm
zone of inhibition at 12.5 µg/disc [22]: 24 mm
MBC [23]: 200 µg/mL (≈ 562 µM)
zone of inhibition at 100 µg/disc [6]: 30 mm
inhibition zone (IZ) [7]: 31 mm
zone of inhibition at 25 µg/disc [24]: 27 mm
MBC [25]: > 100 µg/mL
MIC [8]: 25 µg/mL (≈ 70.3 µM)
Ratio [26]: >2
MFC [27]: 100 µg/mL (≈ 281 µM)
MBC [28]: 50 µg/mL (≈ 141 µM)
zone of inhibition at 25 µg/disc [9]: 26 mm
MIC [29]: 12.5 µg/mL (≈ 35.1 µM)
zone of inhibition at 25 µg/disc [30]: 32 mm
zone of inhibition at 25 µg/disc [31]: 22 mm
MIC [32]: 50 µg/mL (≈ 141 µM)
zone of inhibition at 12.5 µg/disc [33]: 26 mm
zone of inhibition at 50 µg/disc [34]: 28 mm
MBC [35]: 100 µg/mL (≈ 281 µM)
zone of inhibition at 12.5 µg/disc [36]: 21 mm
zone of inhibition at 12.5 µg/disc [10]: 24 mm
zone of inhibition at 50 µg/disc [37]: 23 mm
zone of inhibition at 100 µg/disc [38]: 31 mm

O=C(N[C@H](CO)[C@H](O)c1ccc([N+](=O)[O-])cc1)C(Cl)Cl [CHLORAMPHENICOL]
zone of inhibition at 50 µg/disc [11]: 36 mm
zone of inhibition at 100 µg/disc [13]: 44 mm
MIC [14]: 6.25 µg/mL (≈ 19.3 µM)
zone of inhibition at 25 µg/disc [15]: 27 mm
zone of inhibition at 100 µg/disc [17]: 40 mm
zone of inhibition at 12.5 µg/disc [18]: 38 mm
zone of inhibition at 100 µg/disc [19]: 37 mm
zone of inhibition at 50 µg/disc [20]: 42 mm
MIC [21]: 12.5 µg/mL (≈ 38.7 µM)
zone of inhibition at 12.5 µg/disc [22]: 25 mm
zone of inhibition at 25 µg/disc [24]: 34 mm
MIC [29]: 6.25 µg/mL (≈ 19.3 µM)
zone of inhibition at 25 µg/disc [30]: 40 mm
zone of inhibition at 25 µg/disc [31]: 32 mm
MIC [32]: 6.25 µg/mL (≈ 19.3 µM)
zone of inhibition at 12.5 µg/disc [33]: 32 mm
zone of inhibition at 50 µg/disc [34]: 29 mm
zone of inhibition at 12.5 µg/disc [36]: 30 mm
zone of inhibition at 50 µg/disc [37]: 35 mm
zone of inhibition at 100 µg/disc [38]: 32 mm
